Laboratory results: patent EP4768499A1, “MACROCYCLIC PEPTIDE COMPOUND HAVING CELL MEMBRANE PERMEABILITY AND METABOLIC STABILITY, AND LIBRARY CONTAINING SAME” (Chugai Seiyaku Kabushiki Kaisha, priority 2023, dated 2025)
Starred links: 1 amine or outer side, 2 acyl side, 3 side chain; linkers in the order of their positions; H or OH if unused. Positions of bridges follow the written chain, without caps; N, C: chain ends. Non-standard residues stand in square brackets, D forms with d. Residues, ends and D or L forms follow the SMILES beside them. *: point of attachment. NMeF = CN[C@@H](Cc1ccccc1)C(=O)O; NMeI = CC[C@H](C)[C@H](NC)C(=O)O; NMeT = CN[C@H](C(=O)O)[C@@H](C)O; hPhe = N[C@@H](CCc1ccccc1)C(=O)O; NMeβAla = CN(CCC(=O)[*:2])[*:1]; NMeL = CN[C@@H](CC(C)C)C(=O)O; dNMeV = CN[C@@H](C(=O)O)C(C)C; NMeV = CN[C@H](C(=O)O)C(C)C; NMeAbu = CC[C@H](NC)C(=O)O; NMeA = CN[C@@H](C)C(=O)O; Piperidide = C1CCN(*)CC1; Abu = CC[C@H](N)C(=O)O; NBuGly = CCCCNCC(=O)O; Sar = CNCC(=O)O; tBu = CC(C)(C)*

What was measured:
Caco-2 cells = test: Membrane permeability test using Caco-2 cells with preincubation; type: in vitro ADME; conditions: Caco-2 cells, preincubation 20 to 24 hours; apical FaSSIF/HBSS 1% DMSO pH 6.0, basal HBSS 4% BSA pH 7.4; basal sample at 180 minutes
[1] = as above; type: in vitro ADME; conditions: Caco-2; preincubation 20 to 24 hours; Apical FaSSIF/HBSS pH 6.0, Basal HBSS 4% BSA pH 7.4; 180 minutes; read-out: Caco2 Papp
[2] = Metabolic stability test: liver microsomal stability assay; type: in vitro ADME, mouse; conditions: mouse liver microsomes 0.5 mg protein/mL, compound 1 µM; for microsomal CLint at 1 µM: male, pH 7.4, presence of NADPH, read-out: Mouse Hepatic Microsome CLh,int NADPH(+); for Mouse Hepatic Microsome CLh,int NADPH(-): absence of NADPH

SMILES | Caco2 Papp (10^-6 cm/sec) (Caco-2 cells) | Papp A→B [1] [×10⁻⁶ cm/s] | microsomal CLint at 1 µM [2] [µL/min/mg] | Mouse Hepatic Microsome CLh,int NADPH(-) [2] [µL/min/mg Protein]
CC[C@H](C)[C@@H]1NC(=O)[C@H](CC(C)C)N(C)C(=O)[C@H](CC(C)C)NC(=O)[C@H](C)N(C)C(=O)C[C@@H](C(=O)N2CCCCC2)NC(=O)[C@H](CC(C)C)NC(=O)[C@@H]2CCCN2C(=O)[C@H](CC(C)C)N(C)C(=O)[C@H]([C@@H](C)O)NC(=O)[C@H]([C@@H](C)CC)N(C)C(=O)[C@H](Cc2ccccc2)N(C)C(=O)[C@H](C)NC(=O)[C@H](Cc2ccccc2)N(C)C(=O)[C@H](CC(C)C)NC1=O [pd027] ([NMeA]L[NMeL]IL[NMeF]A[NMeF][NMeI]T[NMeL]PLD-Piperidide; lactam N-14) | 0.02 10^-6 cm/sec | 0.02 | 42.4 | 31.1
CC[C@@H]1NC(=O)[C@H]([C@@H](C)O)N(C)C(=O)[C@H](CC(C)C)N(C)C(=O)[C@H]([C@@H](C)CC)NC(=O)[C@H](Cc2ccccc2)N(C)C(=O)CN(C)C(=O)C[C@@H](C(=O)N2CCCCC2)NC(=O)[C@H](C(C)C)N(C)C(=O)[C@H](CC)NC(=O)[C@H](COC(C)(C)C)NC(=O)[C@H](C)N(C)C(=O)[C@H](CC)NC(=O)[C@H](CC(C)C)N(C)C(=O)[C@H](CCc2ccccc2)NC1=O [pd028] ([Sar][NMeF]I[NMeL][NMeT][Abu][hPhe][NMeL][Abu][NMeA]S(tBu)[Abu][NMeV]D-Piperidide; lactam N-14) | 0.03 10^-6 cm/sec | 0.03 | 37.2 | 22.1
CC[C@H](C)[C@@H]1NC(=O)[C@H](CC(C)C)N(C)C(=O)C[C@@H](C(=O)N2CCCCC2)NC(=O)[C@H](Cc2ccccc2)N(C)C(=O)[C@H](C(C)C)NC(=O)[C@@H]2CCCN2C(=O)[C@H]([C@@H](C)CC)NC(=O)[C@H](CC)N(C)C(=O)[C@H](C(C)C)N(C)C(=O)[C@H](CC(C)C)NC(=O)[C@H](CC(C)C)N(C)C(=O)[C@H]([C@@H](C)O)NC(=O)[C@H](Cc2ccccc2)NC(=O)CN(C)C1=O [pd029] ([NMeL]I[Sar]FT[NMeL]L[NMeV][NMeAbu]IPV[NMeF]D-Piperidide; lactam N-14) | 0.02 10^-6 cm/sec | 0.02 | 38.2 | 36.6
CC[C@@H]1NC(=O)[C@H](Cc2ccccc2)N(C)C(=O)[C@H](CC(C)C)NC(=O)CNC(=O)[C@H]([C@@H](C)O)N(C)C(=O)[C@H](CC(C)C)N(C)C(=O)[C@H]([C@@H](C)CC)NC(=O)[C@H](Cc2ccccc2)N(C)C(=O)CN(C)C(=O)C[C@@H](C(=O)N2CCCCC2)NC(=O)[C@H](C(C)C)N(C)C(=O)[C@H](CC(C)C)NC(=O)[C@H](C(C)C)NC(=O)[C@H](C)N(C)C1=O [pd030] ([Sar][NMeF]I[NMeL][NMeT]GL[NMeF][Abu][NMeA]VL[NMeV]D-Piperidide; lactam N-14) | 0.04 10^-6 cm/sec | 0.04 | 33.7 | 28.5
CC[C@@H]1NC(=O)[C@H](C(C)C)N(C)C(=O)[C@H](CC(C)C)NC(=O)[C@H](CC(C)C)N(C)C(=O)[C@H]([C@@H](C)O)NC(=O)CN(C)C(=O)[C@H]([C@@H](C)CC)NC(=O)[C@H](Cc2ccccc2)N(C)C(=O)[C@H](CC(C)C)N(C)C(=O)C[C@@H](C(=O)N2CCCCC2)NC(=O)[C@H](Cc2ccccc2)N(C)C(=O)[C@H](COC(C)(C)C)NC(=O)[C@@H]2CCCN2C(=O)[C@H]([C@@H](C)CC)NC1=O [pd031] ([NMeL][NMeF]I[Sar]T[NMeL]L[NMeV][Abu]IPS(tBu)[NMeF]D-Piperidide; lactam N-14) | 0.04 10^-6 cm/sec | 0.04 | 40.3 | 32.3
CC(C)C[C@@H]1NC(=O)[C@H](CC(C)C)N(C)C(=O)[C@H](C(C)C)N(C)C(=O)[C@H](CCc2ccccc2)NC(=O)[C@H]([C@@H](C)O)N(C)C(=O)[C@@H](C(C)C)NC(=O)C[C@@H](C(=O)N2CCCCC2)NC(=O)[C@H](C(C)C)N(C)C(=O)[C@H](CC(C)C)NC(=O)[C@H](Cc2ccccc2)N(C)C(=O)[C@@H]2CCCN2C(=O)[C@H](C(C)C)NC(=O)[C@H](CC(C)C)N(C)C(=O)CN(C)C1=O [pd032] ([dV][NMeT][hPhe][NMeV][NMeL]L[Sar][NMeL]VP[NMeF]L[NMeV]D-Piperidide; lactam N-14) | 0.72 10^-6 cm/sec | 0.72 | 28.9 | 28.7
CC[C@@H]1NC(=O)[C@H](C(C)C)N(C)C(=O)[C@H](CC(C)C)NC(=O)[C@H](Cc2ccccc2)N(C)C(=O)[C@@H](C(C)C)N(C)C(=O)C[C@@H](C(=O)N2CCCCC2)NC(=O)[C@H](CC(C)C)NC(=O)[C@H](C(C)C)N(C)C(=O)[C@H](Cc2ccccc2)N(C)C(=O)[C@H](CC(C)C)NC(=O)[C@H](CC(C)C)N(C)C(=O)[C@H](C)N(C)C(=O)[C@H]([C@@H](C)O)NC(=O)[C@H](CC(C)C)N(C)C1=O [pd033] ([dNMeV][NMeF]L[NMeV][Abu][NMeL]T[NMeA][NMeL]L[NMeF][NMeV]LD-Piperidide; lactam N-14) | 0.03 10^-6 cm/sec | 0.03 | 47.8 | 34.1
CC[C@H](C)[C@@H]1NC(=O)[C@H](C)N(C)C(=O)[C@H]([C@@H](C)O)NC(=O)[C@H](Cc2ccccc2)N(C)C(=O)[C@H](COC(C)(C)C)NC(=O)[C@H](CC(C)C)N(C)C(=O)[C@H](C(C)C)NC(=O)CN(C)C(=O)[C@H](Cc2ccccc2)N(C)C(=O)[C@H]([C@@H](C)CC)NC(=O)[C@H](CC(C)C)N(C)C(=O)CCN(C)C(=O)C[C@@H](C(=O)N2CCCCC2)NC(=O)[C@H](CC(C)C)N(C)C1=O [pd034] ([NMeβAla][NMeL]I[NMeF][Sar]V[NMeL]S(tBu)[NMeF]T[NMeA]I[NMeL]D-Piperidide; lactam N-14) | 0.27 10^-6 cm/sec | 0.27 | 46.8 | 36.0
CCCCN1CC(=O)N[C@@H](CC(C)C)C(=O)N(C)[C@@H]([C@@H](C)CC)C(=O)N[C@@H](CC)C(=O)N(C)[C@@H]([C@@H](C)O)C(=O)N(C)[C@@H](Cc2ccccc2)C(=O)N[C@@H]([C@@H](C)CC)C(=O)N(C)[C@@H](CC(C)C)C(=O)N[C@H](C(=O)N2CCCCC2)CC(=O)N(C)[C@@H](C)C(=O)N[C@@H](CC(C)C)C(=O)N(C)[C@@H](CC(C)C)C(=O)N(C)[C@@H](Cc2ccccc2)C(=O)N[C@@H](CC)C1=O [pd035] ([NMeA]L[NMeL][NMeF][Abu][NBuGly]L[NMeI][Abu][NMeT][NMeF]I[NMeL]D-Piperidide; lactam N-14) | <0.11 10^-6 cm/sec | < 0.11 | 28.3 | 27.5
CC[C@H](C)[C@H]1C(=O)N[C@@H](CC(C)C)C(=O)N(C)[C@@H](CC(C)C)C(=O)N2CCC[C@H]2C(=O)N(C)[C@@H](C(C)C)C(=O)N[C@H](C(=O)N2CCCCC2)CC(=O)N[C@@H](C)C(=O)N(C)[C@@H](CC(C)C)C(=O)N[C@@H](C(C)C)C(=O)N(C)[C@@H](Cc2ccccc2)C(=O)N(C)[C@@H](CC(C)C)C(=O)N[C@@H](C)C(=O)N(C)[C@@H](Cc2ccccc2)C(=O)N[C@@H]([C@@H](C)O)C(=O)N1C [pd036] (A[NMeL]V[NMeF][NMeL]A[NMeF]T[NMeI]L[NMeL]P[NMeV]D-Piperidide; lactam N-14) | 0.28 10^-6 cm/sec | 0.28 | 35.4 | 25.7
CC[C@H](C)[C@H]1C(=O)N[C@@H]([C@@H](C)O)C(=O)N(C)CC(=O)N(C)[C@@H](CC(C)C)C(=O)N[C@@H](CC(C)C)C(=O)N[C@H](C(=O)N2CCCCC2)CC(=O)N(C)[C@@H](C)C(=O)N[C@@H](CC(C)C)C(=O)N(C)[C@@H](CC(C)C)C(=O)N[C@@H](C(C)C)C(=O)N(C)CCC(=O)N(C)[C@@H](Cc2ccccc2)C(=O)N[C@@H](C)C(=O)N(C)[C@@H](Cc2ccccc2)C(=O)N1C [pd037] ([NMeA]L[NMeL]V[NMeβAla][NMeF]A[NMeF][NMeI]T[Sar][NMeL]LD-Piperidide; lactam N-14) | 0.26 10^-6 cm/sec | 0.26 | 18.3 | 17.7
CC[C@@H]1NC(=O)[C@H]([C@@H](C)O)N(C)C(=O)CCN(C)C(=O)[C@H]([C@@H](C)CC)NC(=O)[C@H](Cc2ccccc2)N(C)C(=O)CN(C)C(=O)C[C@@H](C(=O)N2CCCCC2)NC(=O)[C@H]([C@@H](C)CC)N(C)C(=O)[C@H](COC(C)(C)C)NC(=O)[C@@H]2CCCN2C(=O)[C@H](CCc2ccccc2)NC(=O)[C@H](CC)N(C)C(=O)[C@H](C)NC(=O)[C@H](CC(C)C)N(C)C1=O [pd038] ([Sar][NMeF]I[NMeβAla][NMeT][Abu][NMeL]A[NMeAbu][hPhe]PS(tBu)[NMeI]D-Piperidide; lactam N-14) | 0.04 10^-6 cm/sec | 0.04 | 12 | 18.1
